Tests used:
5-HT7 receptor = 5-HT7 receptor (Homo sapiens, UniProt P34969); assay: Binding to 5-HT7 receptor (selectivity); parameters: dose or concentration left out as unconfirmed; details: selectivity versus 5-HT6; read-out: percent inhibition for the 5-HT7 receptor
human 5HT6 receptor [1] = biological target: T1, human 5HT6 receptor (Homo sapiens, UniProt P50406); assay: Functional assay: reversal of serotonin-stimulated adenyl cyclase activity (cAMP) in HEK 293 cells stably expressing the human 5HT6 receptor; type: cell-based; parameters: cAMP functional assay in whole cells; details: 100 nM and 10 μM test compound with serotonin
Description: The 5HT6 receptor responds to serotonin and other agonists by increasing adenyl cyclase mediated production of cyclic AMP. Particular test compounds were assayed for their effect on adenyl cyclase activity using the procedure described below.
Compounds acting as antagonists at the 5HT6 receptor will antagonize the agonist effect of serotonin and thus, will block the serotonin-inducedincrease in adenyl cyclase activity.
HEK 293 cells stably expressing the human 5HT6 receptor were plated in 6 well plates in DMEM (Dulbecco's Modified Eagle Medium)/F12 (Nutrient Mixture F12-Ham) media with 10% FCS (fetal calf serum) and G418 (Geneticen Disulfate, 500 ug/ml), and incubated at 37° C. in a CO2 incubator. The cells were allowed to grow to about 70% confluence before use in the assay.
The culture medium of each well was removed, and the wells were washed once with serum free media. Then 2 ml of SFM+IBMX medium (SFM with 0.5 mM IBMX, 3-isobutyl-1-methylxanthine, 0.1% ascorbic acid and 10 mM pargyline) was added to each well and the wells were incubated at 37° C. for 10 min. Following incubation, the SFM+IBMX medium was removed from each well and fresh SFM+IBMX media was added to the wells separately with one of a) serotonin (1 μM final concentration); b) test compound (100 nM and 10 μM, to test for agonist activity); and c) test compound (100 nM and 10 μM) along with serotonin ([…], to test for antagonist activity). Basal adenyl cyclase activity was determined from wells with only SFM+IBMX media added.
The cells were then incubated at 37° C. for 30 minutes in a CO2 incubator. Following incubation, the media were removed from each well. The wells were washed once with 1 ml of PBS (phosphate buffered saline). Each well was then treated with 1 mL cold 95% ethanol:5 mM EDTA (2:1) at 4° C. for 1 hour. The cells from each well were then scraped and transferred into individual Eppendorf tubes. The tubes were centrifuged for 5 minutes at 4° C., and the supernatants were transferred to new Eppendorf tubes and stored at 4° C. The pellets were discarded and the supernatants were stored at 4° C. until assayed for cAMP concentration. cAMP content for each extract was determined in duplicate by EIA (enzyme-immunoassay) using the Amersham Biotrak cAMP EIA kit (Amersham RPN 225). Final results were expressed as % basal response for agonists and % reversal of serotonin response for antagonists.
The total stimulation of adenyl cyclase by serotonin (So) was determined as the difference in concentration of cAMP in the serotonin-treated cells (Cd) and the basal-treated cells (Cf).
The net stimulation (S) of basal adenyl cyclase by an agonist test compound was determined as the difference in cAMP concentration in the drug-treatedcell (C) and the basal-treated cells (Cf).
The net stimulation (Ss) of basal adenyl cyclase by serotonin in the presence of an antagonist test compound was determined as the difference in cAMP concentration in the serontonin-drug-treated cells (Cs) and the basal-treated cells (Cf).
The ability of the antagonist test compound to reverse the serotonin stimuation of adenyl cyclase activity (% reversal, % R) was determined by the formula: […]

5HT2C receptor = biological target: T2, 5HT2C receptor (Homo sapiens, UniProt P28335); assay: Binding to 5HT2C receptor (selectivity); details: selectivity versus 5-HT6; read-out: percent inhibition for the 5HT2C receptor
T2 sequence (P28335 33-458): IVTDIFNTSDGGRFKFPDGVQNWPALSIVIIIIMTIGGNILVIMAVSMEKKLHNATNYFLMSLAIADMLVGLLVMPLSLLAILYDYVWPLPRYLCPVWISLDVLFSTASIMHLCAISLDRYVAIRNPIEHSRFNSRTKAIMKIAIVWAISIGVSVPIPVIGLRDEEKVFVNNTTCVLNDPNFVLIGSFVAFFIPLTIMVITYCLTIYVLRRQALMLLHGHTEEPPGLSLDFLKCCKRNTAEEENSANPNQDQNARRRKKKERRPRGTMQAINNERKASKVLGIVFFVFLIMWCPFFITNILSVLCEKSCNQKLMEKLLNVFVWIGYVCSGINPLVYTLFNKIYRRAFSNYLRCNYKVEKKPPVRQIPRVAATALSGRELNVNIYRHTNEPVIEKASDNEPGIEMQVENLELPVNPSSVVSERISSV

5-HT2A receptor = 5-HT2A receptor (Homo sapiens, UniProt P28223); assay: Binding to 5-HT2A receptor (selectivity); parameters: dose or concentration left out as unconfirmed; details: selectivity versus 5-HT6; read-out: percent inhibition for the 5-HT2A receptor
human 5HT6 receptor [2] = biological target: T1, human 5HT6 receptor; assay: Binding affinity for the 5-HT6 receptor (3H-LSD displacement); parameters: expressed in transfected cells; details: 100 nM test compound; 3H-LSD (2 nM); 60 minute incubation at 37° C; read-out: percent inhibition of radioligand binding for the 5-HT6 receptor
Description: Binding Affinity for the 5-HT6 Receptor
The assay protocol generally entailed the incubation of membranes prepared from cells expressing the 5-HT6 receptor with ^3 H-LSD (2 nM). Increasing levels of the test compound were incubated with the radioligand and the membrane homogenates prepared from the recombinant cells. After a 60 minute incubation at 37° C., the incubation was terminated by vacuum filtration. The filters were washed with buffer and the filters were counted for radioactivity using liquid scintillation spectrometry. […] Concentrations ranging from 10^-11 M to 10^-5 M of the test compound were evaluated. […] Affinity for the 5-HT6 receptor is expressed as the amount (in percent) of binding of the radioligand that is inhibited in the presence of 100 nM of test compound. A greater percent inhibition indicates greater affinity for the 5-HT6 receptor.

Chain of 5-HT7 receptor (P34969 whole entry): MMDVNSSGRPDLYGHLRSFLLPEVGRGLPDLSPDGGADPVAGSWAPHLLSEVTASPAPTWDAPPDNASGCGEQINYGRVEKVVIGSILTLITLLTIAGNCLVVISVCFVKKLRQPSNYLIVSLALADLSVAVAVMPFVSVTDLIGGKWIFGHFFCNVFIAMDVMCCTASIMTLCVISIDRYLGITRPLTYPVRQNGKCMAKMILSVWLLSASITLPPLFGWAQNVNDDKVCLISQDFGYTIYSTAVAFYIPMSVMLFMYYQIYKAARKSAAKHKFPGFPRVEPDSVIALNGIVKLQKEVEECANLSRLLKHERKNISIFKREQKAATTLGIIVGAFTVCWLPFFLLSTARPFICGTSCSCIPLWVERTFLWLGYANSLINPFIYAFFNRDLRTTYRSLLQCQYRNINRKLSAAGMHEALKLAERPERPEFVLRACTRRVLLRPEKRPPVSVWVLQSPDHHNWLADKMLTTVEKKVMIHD
T1 sequence (P50406 whole entry): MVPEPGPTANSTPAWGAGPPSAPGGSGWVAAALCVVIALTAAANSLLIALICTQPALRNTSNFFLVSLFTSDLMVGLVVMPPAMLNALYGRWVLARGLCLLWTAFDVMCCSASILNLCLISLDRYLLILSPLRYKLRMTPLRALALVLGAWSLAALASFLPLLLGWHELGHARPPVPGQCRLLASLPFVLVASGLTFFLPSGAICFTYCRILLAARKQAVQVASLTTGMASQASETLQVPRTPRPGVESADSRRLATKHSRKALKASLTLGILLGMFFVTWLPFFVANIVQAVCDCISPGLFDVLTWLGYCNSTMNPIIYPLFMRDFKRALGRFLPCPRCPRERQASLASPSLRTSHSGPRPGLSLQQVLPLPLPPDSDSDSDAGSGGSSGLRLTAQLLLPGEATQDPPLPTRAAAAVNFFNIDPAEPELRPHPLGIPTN
Chain of 5-HT2A receptor (P28223 whole entry): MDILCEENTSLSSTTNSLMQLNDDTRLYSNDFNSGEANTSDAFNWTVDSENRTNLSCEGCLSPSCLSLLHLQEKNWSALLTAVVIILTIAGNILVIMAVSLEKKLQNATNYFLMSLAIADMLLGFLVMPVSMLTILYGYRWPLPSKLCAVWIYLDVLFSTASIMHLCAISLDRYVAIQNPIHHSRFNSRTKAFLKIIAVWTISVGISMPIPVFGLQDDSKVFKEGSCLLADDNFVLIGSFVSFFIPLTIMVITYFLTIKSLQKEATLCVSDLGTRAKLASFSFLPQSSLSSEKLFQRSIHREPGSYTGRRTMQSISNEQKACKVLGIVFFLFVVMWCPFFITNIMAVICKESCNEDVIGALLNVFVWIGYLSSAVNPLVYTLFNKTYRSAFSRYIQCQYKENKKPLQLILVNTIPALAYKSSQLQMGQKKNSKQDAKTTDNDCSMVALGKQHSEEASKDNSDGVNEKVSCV

Row | Compound | inhibition (5-HT7 receptor) | reversal of serotonin stimulation of adenyl cyclase (5-HT6 receptor antagonism) (human 5HT6 receptor [1]) | inhibition at 0.1 µM (5HT2C receptor) | inhibition (5-HT2A receptor) | inhibition at 0.1 µM (human 5HT6 receptor [2])
1 | O=S(=O)(c1cccc2ccccc12)n1cc(N2CCN3CCCC3C2)c2ccccc21 (racemic) [Example 6b, 3-[(6-R,S)-1,4-Diaza[4.3. 0]bicyclonon-4-yl]-1-(1-naphthalenesulfonyl)indole] | < 20% | able to reverse the serotonin stimulation of adenyl cyclase | < 20% | < 20% | > 80%
2 | O=S(=O)(c1ccccc1)n1cc(N2CCN3CCCC3C2)c2ccccc21 (racemic) [Example 6j, 3-[(6-R,S)-1,4-Diaza[4.3.0]bicyclonon-4-yl]-1-(phenylsulfonyl)indole] | < 20% | able to reverse the serotonin stimulation of adenyl cyclase | < 20% | < 20% | > 80%
3 | O=S(=O)(c1ccccc1)n1cc(C2=CCN3CCCC3C2)c2cc(F)ccc21 (racemic) [Example 6x, 5-Fluoro-3-[(8a-R,S)-1,2,3,5,8,8a-hexahydro-7-indolizinyl]-1-phenylsulfonylindole] | < 20% | able to reverse the serotonin stimulation of adenyl cyclase | < 20% | < 20% | > 80%
4 | O=S(=O)(c1cccc2ccccc12)n1cc(C2=CCN3CCCC3C2)c2cc(F)ccc21 (racemic) [Example 6y, 5-Fluoro-3-[(8a-R,S)-1,2,3,5,8,8a-hexahydro-7-indolizinyl]-1-(1-naphthalenesulfonyl)indole] | < 20% | able to reverse the serotonin stimulation of adenyl cyclase | < 20% | < 20% | > 80%
5 | O=S(=O)(c1ccc2ccccc2c1)n1cc(C2CCN3CCCC3C2)c2cc(F)ccc21 (single isomer, unassigned; isomer i) [Example 10a, 5-Fluoro-3-[(7R or 7S)(8a-R,S)-octahydrohydro-7-indolizinyl]-1-(2-naphthalenesulfonyl)indole,Isomer I] |  | able to reverse the serotonin stimulation of adenyl cyclase |  |  | > 80%
6 | O=S(=O)(c1ccccc1)n1cc(C2CCN3CCCC3C2)c2cc(F)ccc21 (single isomer, unassigned; isomer i) [Example 10c, 5-Fluoro-3-[(7R or 7S)(8a-R,S)-octahydrohydro-7-indolizinyl]-1-phenylsulfonylindole, Isomer I] |  | able to reverse the serotonin stimulation of adenyl cyclase |  |  | > 80%
7 | O=S(=O)(c1cccc2ccccc12)n1cc(C2CCN3CCCC3C2)c2cc(F)ccc21 (single isomer, unassigned; isomer i) [Example 10e, 5-Fluoro-3-[(7R or 7S)(8a-R,S)-octahydrohydro-7-indolizinyl]-1-(1-napthalenesulfonyl)indole, Isomer I] |  | able to reverse the serotonin stimulation of adenyl cyclase |  |  | > 80%
8 | O=S(=O)(c1ccc2ccccc2c1)n1cc(C2CCN3CCCC3C2)c2cc(F)ccc21 (single isomer, unassigned; isomer ii) [Example 10b, 5-Fluoro-3-[(7R or 7S)(8a-R,S)-octahydrohydro-7-indolizinyl]-1-(2-naphthalenesulfonyl)indole, Isomer II] | < 20% | able to reverse the serotonin stimulation of adenyl cyclase | < 20% | < 20% | 
9 | O=S(=O)(c1cccc2ccccc12)n1cc(C2CCN3CCCC3C2)c2cc(F)ccc21 (single isomer, unassigned; isomer ii) [Example 10f, 5-Fluoro-3-[(7R or 7S)(8a-R,S)-octahydrohydro-7-indolizinyl]-1-(1-naphthalenesulfonyl)indole,Isomer II] | < 20% | able to reverse the serotonin stimulation of adenyl cyclase | < 20% | < 20% | 
